Results as given in ChEMBL document CHEMBL4219182, “One-pot, multicomponent synthesis of 2,3-disubstituted quinazolin-ones with potent and selective activity against Toxoplasma gondii” (Bioorg Med Chem Lett, 2018).
The source made the active and inactive calls. The rule behind the calls is not given here.

Assays:
[1] = Therapeutic index, ratio of TD50 for HFF to IC50 for tachyzoite stage of Toxoplasma gondii expressing beta-gal infected in HFF; format: toxicity; settings: human; read-out: TI
[2] = Cytotoxicity against HFF by CellTiter96 AQueous one solution cell proliferation assay; format: cell-based; settings: human, HFF cells; read-out: TD50 (the source's name)
[3] = system: Toxoplasma gondii; assay: Antiparasitic activity against tachyzoite stage of Toxoplasma gondii expressing beta-gal infected in HFF after 4 days by […] based assay; format: functional, organism-based; settings: 96 h
[4] = system: Toxoplasma gondii; assay: Antiparasitic activity against tachyzoite stage of Toxoplasma gondii infected in HFF assessed as inhibition of parasite replication by measuring parasitophorous vacuoles containing 1, 2, 4 and 8 tachyzoites at 10 uM after 24 hrs by microscopic analysis; format: functional, organism-based
[5] = system: Toxoplasma gondii; assay: Antiparasitic activity against tachyzoite stage of Toxoplasma gondii infected in HFF assessed as reduction in parasite invasion at 10 uM pretreated with parasite for 20 mins followed by infection in HFF measured by immunofluorescence staining based assay; format: functional, organism-based
[6] = system: Toxoplasma gondii; assay: Antiparasitic activity against tachyzoite stage of Toxoplasma gondii infected in HFF assessed as reduction in parasite attachment to host cell at 10 uM pretreated with parasite for 20 mins followed by infection in HFF measured by immunofluorescence staining based assay; format: functional, organism-based
[7] = system: Toxoplasma gondii; assay: Antiparasitic activity against tachyzoite stage of Toxoplasma gondii infected in HFF assessed as inhibition of parasite replication by measuring increase in parasitophorous vacuoles containing 1 tachyzoites at 10 uM after 24 hrs by microscopic analysis; format: functional, organism-based
[8] = system: Toxoplasma gondii; assay: Antiparasitic activity against tachyzoite stage of Toxoplasma gondii infected in HFF assessed as inhibition of parasite replication by measuring parasitophorous vacuoles containing 1 or 2 tachyzoites at 10 uM after 24 hrs by microscopic analysis; format: functional

## O=c1c2ccccc2nc(-c2ccc(OCc3ccccc3)cc2)n1CCc1cc2ccccc2[nH]1
[1]
  selectivity ratio: 2
[2]
  CC50: ≥ 320 µM
[3]
  IC50: 154 µM
  IC90: 724 µM

## CN(C)c1ccc(-c2nc(O)c3ccccc3n2)cc1
[1]
  selectivity ratio: 23
[2]
  CC50: ≥ 320 µM
[3]
  IC50: 14 µM
  IC90: 281 µM
[4]
  inhibition: inactive
[5]
  Activity: Active
[6]
  Activity: Active

## O=c1c2ccccc2nc(-c2ccc(OCc3ccccc3)cc2)n1-c1ccc(Br)cc1
[1]
  selectivity ratio: 2
[2]
  CC50: 5 µM
[3]
  IC50: 3 µM
  IC90: 12 µM
[7]
  inhibition: Active
[8]
  inhibition at 10 µM: > 75%
[5]
  Activity: Active

## CCCCCCn1c(-c2ccc(N(C)C)cc2)nc2ccccc2c1=O
[1]
  selectivity ratio: 3
[2]
  CC50: 50 µM
[3]
  IC50: 18 µM
  IC90: 52 µM

## CC(C)CCn1c(-c2ccc(N(C)C)cc2)nc2ccccc2c1=O
[1]
  selectivity ratio: 2
[2]
  CC50: 85 µM
[3]
  IC50: 35 µM
  IC90: 116 µM

## CN(C)c1ccc(-c2nc3ccccc3c(=O)n2CCc2ccc(O)cc2)cc1
[1]
  selectivity ratio: 2
[2]
  CC50: 196 µM
[3]
  IC50: 112 µM
  IC90: 353 µM

## CN(C)c1ccc(-c2nc3ccccc3c(=O)n2Cc2ccccc2)cc1
[1]
  selectivity ratio: 11
[2]
  CC50: 133 µM
[3]
  IC50: 12 µM
  IC90: 60 µM

## COc1ccc(-n2c(-c3ccc(Br)cc3)nc3ccccc3c2=O)cc1
[1]
  selectivity ratio: 10
[2]
  CC50: ≥ 320 µM
[3]
  IC50: 32 µM
  IC90: 81 µM

## O=c1c2ccccc2nc(-c2ccc(OCc3ccccc3)cc2)n1C1CCCCC1
[1]
  selectivity ratio: 53
[2]
  CC50: ≥ 320 µM
[3]
  IC50: 6 µM
  IC90: 46 µM
[8]
  inhibition at 10 µM: > 70%
[5]
  Activity: inactive
[6]
  Activity: inactive

## COc1ccc(-n2c(-c3ccc(OCc4ccccc4)cc3)nc3ccccc3c2=O)cc1
[1]
  selectivity ratio: 1
[2]
  CC50: 4 µM
[3]
  IC50: 4 µM
  IC90: 14 µM
[5]
  Activity: Active
[6]
  Activity: Active

## CCCCCCn1c(-c2ccc(OC)cc2)nc2ccccc2c1=O
[1]
  selectivity ratio: 4
[2]
  CC50: 42 µM
[3]
  IC50: 10 µM
  IC90: 48 µM

## O=c1c2ccccc2nc(-c2ccc(OCc3ccccc3)cc2)n1CCc1ccc(O)cc1
[1]
  selectivity ratio: 13
[2]
  CC50: 229 µM
[3]
  IC50: 17 µM
  IC90: 52 µM

## CCCCCCCCCCn1c(-c2ccc(N(C)C)cc2)nc2ccccc2c1=O
[1]
  selectivity ratio: 7
[2]
  CC50: ≥ 320 µM
[3]
  IC50: 49 µM
  IC90: 170 µM

## CC(C)CCn1c(-c2ccc(OCc3ccccc3)cc2)nc2ccccc2c1=O
[1]
  selectivity ratio: 10
[2]
  CC50: 118 µM
[3]
  IC50: 12 µM
  IC90: 55 µM

## O=c1c2ccccc2nc(-c2ccc(Br)cc2)n1-c1ccc(Br)cc1
[1]
  selectivity ratio: 7
[2]
  CC50: ≥ 320 µM
[3]
  IC50: 44 µM
  IC90: 126 µM

## O=c1[nH]c(-c2ccc3c(c2)OCO3)nc2ccccc12
[1]
  selectivity ratio: 6
[2]
  CC50: ≥ 320 µM
[3]
  IC50: 50 µM
  IC90: 443 µM

## O=c1[nH]c(-c2ccc(OCc3ccccc3)cc2)nc2ccccc12
[1]
  selectivity ratio: 2
[2]
  CC50: ≥ 320 µM
[3]
  IC50: 153 µM
  IC90: 4990 µM

## COc1ccc(-c2nc3ccccc3c(=O)[nH]2)cc1
[1]
  selectivity ratio: 6
[2]
  CC50: 125 µM
[3]
  IC50: 20 µM
  IC90: 121 µM

## O=C1C(O)=C([C@H]2CC[C@H](c3ccc(Cl)cc3)CC2)C(=O)c2ccccc21 [ATOVAQUONE]
[1]
  selectivity ratio: 111
[2]
  CC50: 21 µM
[3]
  IC50: 0.2 µM
  IC90: 0.6 µM

## C[C@@H]1CC[C@H]2[C@@H](C)C(=O)O[C@@H]3O[C@@]4(C)CC[C@@H]1[C@]32OO4 [ARTEMISININ]
[1]
  selectivity ratio: 160
[2]
  CC50: ≥ 320 µM
[3]
  IC50: 2 µM
  IC90: 19 µM

## Oc1nc(-c2ccc(F)cc2)nc2ccccc12
[1]
  selectivity ratio: 11
[2]
  CC50: ≥ 320 µM
[3]
  IC50: 29 µM
  IC90: 260 µM

## O=c1[nH]c(-c2ccc(Br)cc2)nc2ccccc12
[1]
  selectivity ratio: 3
[2]
  CC50: ≥ 320 µM
[3]
  IC50: 92 µM
  IC90: 414 µM
[7]
  inhibition: Active
[5]
  Activity: Active
[6]
  Activity: Active

## Oc1nc(-c2cccnc2)nc2ccccc12
[1]
  selectivity ratio: 3
[2]
  CC50: ≥ 320 µM
[3]
  IC50: 94 µM
  IC90: 225 µM

## CN(C)c1ccc(-c2nc3ccccc3c(=O)n2C2CCCCC2)cc1
[1]
  selectivity ratio: 7
[2]
  CC50: 112 µM
[3]
  IC50: 15 µM
  IC90: 67 µM

## CCCCCCn1c(-c2ccc(OCc3ccccc3)cc2)nc2ccccc2c1=O
[1]
  selectivity ratio: 18
[2]
  CC50: 178 µM
[3]
  IC50: 10 µM
  IC90: 45 µM
[4]
  inhibition: inactive
[5]
  Activity: Active
[6]
  Activity: Active

## CC(C)=CCCC(C)=CCn1c(-c2ccc(OCc3ccccc3)cc2)nc2ccccc2c1=O
[1]
  selectivity ratio: 46
[2]
  CC50: ≥ 320 µM
[3]
  IC50: 7 µM
  IC90: 58 µM
[8]
  inhibition at 10 µM: > 70%
[5]
  Activity: inactive
[6]
  Activity: inactive

## COc1ccc(-c2nc3ccccc3c(=O)n2-c2ccc(Br)cc2)cc1
[1]
  selectivity ratio: 6
[2]
  CC50: 196 µM
[3]
  IC50: 31 µM
  IC90: 83 µM

## O=c1c2ccccc2nc(-c2ccc(OCc3ccccc3)cc2)n1Cc1ccccc1
[1]
  selectivity ratio: 25
[2]
  CC50: ≥ 320 µM
[3]
  IC50: 13 µM
  IC90: 71 µM
[8]
  inhibition at 10 µM: > 70%
[5]
  Activity: inactive
[6]
  Activity: inactive

## O=c1[nH]c(-c2ccc(OC(F)(F)F)cc2)nc2ccccc12
[1]
  selectivity ratio: 12
[2]
  CC50: ≥ 320 µM
[3]
  IC50: 27 µM
  IC90: 447 µM

## CCCCCCCCCCn1c(-c2ccc(OCc3ccccc3)cc2)nc2ccccc2c1=O
[1]
  selectivity ratio: 13
[2]
  CC50: ≥ 320 µM
[3]
  IC50: 25 µM
  IC90: 119 µM

## COc1ccc(-n2c(-c3ccc4c(c3)OCO4)nc3ccccc3c2=O)cc1
[1]
  selectivity ratio: 8
[2]
  CC50: ≥ 320 µM
[3]
  IC50: 40 µM
  IC90: 91 µM

## COc1ccccc1-c1nc(O)c2ccccc2n1
[1]
  selectivity ratio: 5
[2]
  CC50: 305 µM
[3]
  IC50: 56 µM
  IC90: 266 µM

## CCCCCCn1c(-c2ccc(Br)cc2)nc2ccccc2c1=O
[1]
  selectivity ratio: 1
[2]
  CC50: 88 µM
[3]
  IC50: 60 µM
  IC90: 193 µM
[7]
  inhibition: Active
[5]
  Activity: Active
[6]
  Activity: Active
